Experimental data taken from patent US20240374631A1, “A COMPOSITION FOR IMPROVING GUT MICROBIOTA, BEHAVIOURAL PATTERN, ALPHA-SYNUCLEIN LEVELS, SLEEP PATTERN AND/OR SERUM MELATONIN” (GN Corporation Co Ltd, priority 2021, published 2024).

Test system: gut microbiota
Assay: Gut microbiome analysis (16S rRNA sequencing of fecal samples) in STAM model of NASH
Assay type: in vivo, C57BL/6J mice
Details: pre (baseline)
Excerpt: The study is reported in accordance with Animal Research: Reporting of In Vivo Experiments (ARRIVE) guidelines. C57BL/6J mice were obtained from Japan SLC, Inc. (Japan). All animals used in this study were cared for under the following guidelines: Act on Welfare and Management of Animals (Ministry of the Environment, Japan, Act No. 105 of Oct. 1, 1973), standards relating to the care and management of laboratory animals and relief of pain (Notice No. 88 of the Ministry of the Environment, Japan, Apr. 28, 2006) and the guidelines for proper conduct of animal experiments (Science Council of Japan, Jun. 1, 2006). Protocol approvals were obtained from SMC Laboratories, Japan's IACUC (Study reference no: […] Mice were maintained in a specific pathogen-free (SPF) facility under controlled conditions of temperature (23±3° C.), humidity (50±20%), lighting (12-hour artificial light and dark cycles; light from 8:00 to 20:00) and air exchange. The STAM model of NASH was induced as previously described [D10]. Mice were given a single subcutaneous injection of 200 μg streptozotocin (STZ, Sigma-Aldrich, USA) solution 2 days after birth and fed with a high-fat diet (HFD, 57 kcal % fat, Cat #HFD32, CLEA Japan, Inc., Japan) from 4-9 weeks of age. All mice develop liver steatosis and diabetes and at […] mice had established steatohepatitis, histologically. Studygroups: There were five study groups, described below. Eight mice were included in each study group. Eight NASH mice were orally administered vehicle supplemented with AFO-202 Beta Glucan at a dose of 1 mg/kg in a volume of 5 mL/kg once daily from 6 to 9 weeks of age. Eight NASH mice were orally administered vehicle supplemented with Telmisartan at a dose of 10 mg/kg once daily from 6 to 9 weeks of age. Frequency: Fecal samples were collected at the 6 weeks of age (before administration) and 9 weeks of age (before sacrifice). Procedure: At 6 weeks of age, fecal samples were collected from each mouse by clean catch method. […] A sterile petri dish was placed on the bench. Gently massage the abdomen, position the bottom of mouse over a fresh petri dish, and collect 1-2 fecal pellets. At sacrifice, fecal samples were aseptically collected from cecum. The tubes with feces were placed on ice immediately. These tubes were snap frozen in liquid nitrogen and stored at -80° C. for shipping. In this analysis, the 16S rRNA sequence data acquired by the next-generation sequencer from the fecal […] was used to perform community analysis using the QIIME2 program for microbial community analysis. The raw read data in FASTQ format output from the next-generation sequencer was trimmed to remove adapter sequences and low QV regions that may be included in the data. Cutadapt was used to remove adapter sequences from DNA sequencing reads. Trimmomatic was used as read trimming tool for Illumina NGS data. The adapter sequence was trimmed using the adapter trimming program “cutadapt” if the Trimming of the region at the end of the read sequence overlapped the corresponding sequence by at least one base (mismatch tolerance: 20%). When reads containing N were present in at least one of Read1 and Read2, both Read1 and Read2 were removed. Trimming of low QV regions was performed on the read data after processing using the QV trimming program “Trimmomatic” under the following conditions. The window of 20 bases is slid from the 5' side, and the area where the average QV is less than 20 is trimmed. After trimming, only the reads with more than 50 bases remaining in both Read1 and Read2 were taken as output. The microbial community analysis based on 16S rRNA sequence was performed on the sequence data trimmed in the previous section using the microbial community analysis program “QIIME2”. The annotation program “sklearn” included in QIIME2 is used to annotate the ASV (OTU) sequences. […]

For CCCc1nc2c(C)cc(-c3nc4ccccc4n3C)cc2n1Cc1ccc(-c2ccccc2C(=O)O)cc1 [Telmisartan], the “Abundance: Ruminococcaceae, Oscillospira, —” value (shortened to “Abundance … Oscillospira, —”) (line r193) was 57, the “Abundance: Lactobacillaceae, Lactobaccilus, reuteri” value (line r194) was 0 and the “Abundance: Coriobacteriaceae, Adlercreutzia, —” value (line r195) was 58. For the same compound, the “Abundance: Lachnospiraceae, —, —” value (line r196) was 0, the “Abundance: S24-7, —, —” value (line r197) was 64 and the “Abundance: Turicibacteraceae, Turicibacter, —” value (line r198) was 0. The “Abundance: S24-7, —, —” value (line r199) was 45, the “Abundance: Rikenellaceae, —, —” value (line r200) was 25 and the “Abundance: Enterobacteriaceae, Other, Other” value (line r201) was 0. The “Abundance: Rikenellaceae, Other, Other” value (line r202) was 47, the “Abundance: Lactobacillaceae, Lactobaccilus, Other” value (line r204) was 0 and the “Abundance: —, —, —” value (line r205) was 60. For the same compound, the “Abundance: S24-7, —, —” value (line r206) was 27, the “Abundance: S24-7, —, —” value (line r207) was 35 and the “Abundance: —, —, —” value (line r208) was 85. The “Abundance: Enterobacteriaceae, Klebsiella, Other” value (line r209) was 0, the “Abundance: —, —, —” value (line r210) was 63 and the “Abundance: Lachnospiraceae, Other, Other” value (line r211) was 48. The “Abundance … Oscillospira, —” value (line r212) was 0, the “Abundance … Oscillospira, —” value (line r213) was 71 and the “Abundance: Bacteroidaceae, Bacteroides, acidifaciens” value (line r214) was 27. The “Abundance: Erysipelotrichaceae, —, —” value (line r215) was 51, the “Abundance: Lachnospiraceae, Dorea, —” value (line r216) was 98 and the “Abundance: Enterobacteriaceae, Enterobacter, Other” value (line r217) was 0. The “Abundance … Oscillospira, —” value (line r218) was 42, the “Abundance: Ruminococcaceae, Other, Other” value (line r219) was 61 and the “Abundance … Oscillospira, —” value (line r220) was 0. The “Abundance: Rikenellaceae, —, —” value (line r221) was 31, the “Abundance: Lachnospiraceae, Other, Other” value (line r223) was 98 and the “Abundance: Other, Other, Other” value (line r224) was 18. For the same compound, the “Abundance … Oscillospira, —” value (line r225) was 79, the “Abundance: S24-7, —, —” value (line r226) was 38 and the “Abundance: Lachnospiraceae, —, —” value (line r227) was 3. The “Abundance: Streptococcaceae, Staphylococcus, —” value (line r228) was 0, the “Abundance: —, —, —” value (line r229) was 96 and the “Abundance: —, —, —” value (line r230) was 87. For the same compound, the “Abundance: —, —, —” value (line r231) was 0, the “Abundance: Other, Other, Other” value (line r232) was 10 and the “Abundance: Aerococcaceae, Aerococcus, —” value (line r233) was 0. For the same compound, the “Abundance: Ruminococcaceae, —, —” value (line r234) was 0, the “Abundance: —, —, —” value (line r235) was 61 and the “Abundance: Streptococcaceae, Staphylococcus, —” value (line r236) was 0. For the same compound, the “Abundance … Oscillospira, —” value (line r237) was 0, the “Abundance: —, —, —” value (line r238) was 0 and the “Abundance: Ruminococcaceae, Ruminococcus, —” value (“Abundance … Ruminococcus, —” for short) (line r239) was 0. For the same compound, the “Abundance: —, —, —” value (line r240) was 6, the “Abundance: Other, Other, Other” value (line r241) was 0 and the “Abundance … Oscillospira, —” value (line r242) was 30. The “Abundance: Lachnospiraceae, [Ruminococcus], gnavus” value (line r243) was 27, the “Abundance: Lachnospiraceae, —, —” value (line r244) was 0 and the “Abundance: Other, Other, Other” value (line r245) was 0. The “Abundance … Oscillospira, —” value (line r246) was 37, the “Abundance: —, —, —” value (line r247) was 69 and the “Abundance: Other, Other, Other” value (line r248) was 0. The “Abundance: Other, Other, Other” value (line r249) was 0, the “Abundance: Other, Other, Other” value (line r250) was 68 and the “Abundance: Lachnospiraceae, Clostridium, Other” value (line r251) was 0. For the same compound, the “Abundance: Lachnospiraceae, —, —” value (line r252) was 0, the “Abundance: Other, Other, Other” value (line r253) was 13 and the “Abundance: Other, Other, Other” value (line r254) was 23. For the same compound, the “Abundance … Oscillospira, —” value (line r255) was 25, the “Abundance: Desulfovibrionaceae, —, —” value (line r256) was 23 and the “Abundance: Dehalobacteriaceae, Dehalobacterium, —” value (line r257) was 24. The “Abundance … Ruminococcus, —” value (line r259) was 44, the “Abundance: Lachnospiraceae, Coprococcus, —” value (“Abundance … Coprococcus, —” below) (line r260) was 23 and the “Abundance … Oscillospira, —” value (line r261) was 0. For the same compound, the “Abundance: Other, Other, Other” value (line r262) was 0, the “Abundance … Coprococcus, —” value (line r263) was 34 and the “Abundance … Oscillospira, —” value (line r264) was 87. The “Abundance: Christensenellaceae, —, —” value (line r265) was 37, the “Abundance: S24-7, —, —” value (line r266) was 44 and the “Abundance … Oscillospira, —” value (line r267) was 95. For the same compound, the “Abundance … Coprococcus, —” value (line r268) was 11, the “Abundance: Lachnospiraceae, Other, Other” value (line r269) was 0 and the “Abundance: Erysipelotrichaceae, Clostridium, cocleatum” value (line r271) was 16. The “Abundance: —, —, —” value (line r272) was 92, the “Abundance: Desulfovibrionaceae, Bilophila, —” value (line r273) was 11 and the “Abundance: —, —, —” value (line r274) was 107. For the same compound, the “Abundance: Corynebacteriaceae, Corynebacterium, stationis” value (line r275) was 0, the “Abundance: Lachnospiraceae, Other, Other” value (line r276) was 0 and the “Abundance: Lachnospiraceae, Other, Other” value (line r277) was 0. For the same compound, the “Abundance: Lachnospiraceae, —, —” value (line r278) was 14, the “Abundance: Lachnospiraceae, —, —” value (line r279) was 31 and the “Abundance: —, —, —” value (line r280) was 108. The “Abundance: —, —, —” value (line r281) was 0, the “Abundance: —, —, —” value (line r282) was 0 and the “Abundance: Ruminococcaceae, —, —” value (line r283) was 27. The “Abundance: —, —, —” value (line r284) was 96, the “Abundance: Lachnospiraceae, —, —” value (line r285) was 90 and the “Abundance: Dehalobacteriaceae, Dehalobacterium, —” value (line r286) was 3. The “Abundance: Other, Other, Other” value (line r287) was 0, the “Abundance: Streptococcaceae, Streptococcus, luteciae” value (line r288) was 12 and the “Abundance: —, —, —” value (line r289) was 0. For the same compound, the “Abundance: S24-7, —, —” value (line r290) was 0, the “Abundance … Ruminococcus, —” value (line r292) was 10 and the “Abundance: Lachnospiraceae, Clostridium, Other” value (line r293) was 26. The “Abundance: —, —, —” value (line r294) was 10, the “Abundance … Oscillospira, —” value (line r295) was 11 and the “Abundance … Coprococcus, —” value (line r296) was 20. The “Abundance: —, —, —” value (line r297) was 12, the “Abundance: S24-7, —, —” value (line r298) was 0 and the “Abundance: Lachnospiraceae, —, —” value (line r300) was 0. For the same compound, the “Abundance … Oscillospira, —” value (line r301) was 54.
